According to ChEMBL document CHEMBL1144106, “Highly oxygenated pseudopterane and cembranolide diterpenes from the Caribbean sea feather Pseudopterogorgia bipinnata” (1999):
Active and inactive are the calls of the source. The calls are words filed in the database; no cut-off is given here.

How the values were obtained:
[1] = test system: CCRF-CEM; assay: Cytotoxicity against human CCRF-CEM cells; format: functional
[2] = test system: Mycobacterium tuberculosis; assay: Antituberculosis activity against Mycobacterium tuberculosis H37Rv at 12.5 ug/mL; format: functional, organism-based

SMILES: C=C(C(=O)OC)[C@@H]1C[C@@H](OC(C)=O)C2=C[C@H](C[C@@]3(C)O[C@@H]3C3=CC(C)=C(O3)[C@H]1OC(C)=O)OC2=O [BIPINNATIN I]
- GI50 [1]: 42.7 nM

SMILES: C=C(C)[C@H]1C2=CC(C)=C(O2)[C@@H](O)[C@H](C(=C)C)CCC2=C[C@H]1OC2=O
- Activity [2]: inactive

SMILES: C=C(C)[C@H]1C(=O)[C@H]2O[C@@]2(C)C(=O)[C@@H](O)[C@H](C(=C)C)CCC2=C[C@H]1OC2=O
- Activity [2]: inactive

SMILES: C=C(C)[C@@H]1C[C@H]2O[C@](O)(C/C(C)=C\C(=O)/C=C(/C)C[C@@H]3OC(=O)[C@]24O[C@@H]34)[C@H]1O
- Activity [2]: inactive

SMILES: C=C(C)[C@@H]1CCC2=C[C@H](C/C(C)=C\C3=CC(C)=C(O3)[C@H]1O)OC2=O
- Activity [2]: inactive
